Experimental data published in patent US12091409B2, “Ether linked triazoles as NRF2 activators” (ASTEX THERAPEUTICS LIMITED, priority 2016, dated 2024).
pEC50: −log10 of the molar value. Structures can show the parent of a compound that is named as a salt.

Tested on: NQO1 specific enzyme activity in BEAS-2B cells (marker for NRF2 activation)
Test: BEAS-2B NQO1 MTT Assay
Type: cell-based
Settings: Homo sapiens, BEAS-2B, 48 h, NQO1 specific activity induction, 48 hours with compound
Excerpt: NAD(P)H:quinone oxidoreductase 1 (NQO1), also called DT diaphorase, is a homodimeric FAD-containing enzyme that catalyzes obligatory NAD(P)H-dependent two-electron reductions of quinones and protects cells against the toxic and neoplastic effects of free radicals and reactive oxygen species arising from one-electron reductions. The transcription of NQO1 is finely regulated by NRF2, and thus NQO1 activity is a good marker for NRF2 activation. On day one, frozen BEAS-2B cells (ATCC) were thawed in a water bath, counted, and re-suspended at a concentration of 250,000 cells/mL. Fifty microliters of cells were plated in 384 well black clear-bottomed plates. Plates were incubated at 37° C., 5% CO2 overnight. On day two, plates were centrifuged and 50 nL of compound or controls were added to the cells. Plates were then incubated at 37° C., 5% CO2 for 48 hours. On day four, medium was aspirated from the plate and crude cell lysates were made by adding 13 uL of 1× Cell Signaling Technologies lysis buffer with 1 Complete, Mini, EDTA-free Protease Inhibitor Tablet (Roche) for each 10 mL of lysis buffer. After lysis plates were incubated for 20 minutes at room temperature. Two microliters of lysate were removed for use in Cell Titer Glo assay (Promega) and MTT cocktail was prepared (Prochaska et. al. 1998) for measurement of NQO1 activity. Fifty microliters of MTT cocktail was added to each well, plate was centrifuged, and analyzed on an Envision plate reader (Perkin Elmer) using Absorbance 570 nm label for 30 minutes. Product formation was measured kinetically and the pEC50 of NQO1 specific activity induction was calculated by plotting the change in absorbance (Delta OD/min) versus the log of compound concentration followed by 3-parameter fitting.
pEC50 is the negative log of the EC50.
EC50s<1 nM (+++++), EC50s 1 nM-10 nM (++++), EC50s 10 nM-100 nM (+++), EC50s 100 nM-1 uM (++), EC50s 1 uM-10 uM (+); EC50s>10 uM (−), or were not determined (ND).

First: CCn1cc(COC(c2ccc(C)c(CN(Cc3ccccc3)S(=O)(=O)c3ccccc3)c2)C(C)(C)C(=O)O)nn1 (stereo not shown) [Example 99, 3-(3-((N-benzylphenylsulfonamido)methyl)-4-methylphenyl)-3-((1-ethyl-1H-1,2,3-triazol-4-yl)methoxy)-2,2-dimethylpropanoic acid]
Second: CC[C@@H]1CN(Cc2cc(C(OCc3cn(Cc4cccc(C(=O)O)c4)nn3)C(C)(C)C(=O)O)ccc2C)S(=O)(=O)c2ccccc2O1 (stereo partly drawn) [Example 21, 3-((4-((2-Carboxy-1-(3-(((R)-4-ethyl-1,1-dioxido-3,4-dihydro-2H-benzo[b][1,4,5]oxathiazepin-2-yl)methyl)-4-methylphenyl)-2-methylpropoxy)methyl)-1H-1,2,3-triazol-1-yl)methyl)benzoic acid]
The pEC50 of the first is higher: 7.00 to 8.00 for the first, 6.00 to 7.00 for the second. The first is the more potent here.

Compared with `Cc1ccc(C(OCc2cn(Cc3cccc(CN=[N+]=[N-])c3)nn2)C(C)(C)C(=O)O)cc1CN1C[C@@H](C)Oc2ccccc2S1(=O)=O` (stereo partly drawn) [Example 3, 3-((1-(3-(Azidomethyl)benzyl)-1H-1,2,3-triazol-4-yl)methoxy)-2,2-dimethyl-3-(4-methyl-3-(((R)-4-methyl-1,1-dioxido-3,4-dihydro-2H-benzo[b][1,4,5]oxathiazepin-2-yl)methyl)phenyl)propanoic acid], `Cc1ccc(C(OCc2cn(Cc3cccc(Cn4cc(CC(=O)O)nn4)c3)nn2)C(C)(C)C(=O)O)cc1CN1C[C@@H](C)Oc2ccccc2S1(=O)=O` (stereo partly drawn) [Example 44, 3-((1-(3-((4-(Carboxymethyl)-1H-1,2,3-triazol-1-yl)methyl)benzyl)-1H-1,2,3-triazol-4-yl)methoxy)-2,2-dimethyl-3-(4-methyl-3-(((R)-4-methyl-1,1-dioxido-3,4-dihydro-2H-benzo[b][1,4,5]oxathiazepin-2-yl)methyl)phenyl)propanoic acid] is lower in pEC50: greater than 9.00 for the first, 6.00 to 7.00 for the second. The first is the more potent here.

`CCC(=O)N1CCC(Cn2cc(COC(c3ccc(C)c(CN4C[C@@H](C)Oc5ccccc5S4(=O)=O)c3)C(C)(C)C(=O)O)nn2)CC1` (stereo partly drawn) [Example 33, 2,2-Dimethyl-3-(4-methyl-3-(((R)-4-methyl-1,1-dioxido-3,4-dihydro-2H-benzo[b][1,4,5]oxathiazepin-2-yl)methyl)phenyl)-3-((1-((1-propionylpiperidin-4-yl)methyl)-1H-1,2,3-triazol-4-yl)methoxy)propanoic acid] and `CC(=O)N1CCC(Cn2cc(COC(c3ccc(C)c(CN4C[C@@H](C)Oc5ccccc5S4(=O)=O)c3)C(C)(C)C(=O)O)nn2)CC1` (stereo partly drawn) [Example 32, 3-((1-((1-Acetylpiperidin-4-yl)methyl)-1H-1,2,3-triazol-4-yl)methoxy)-2,2-dimethyl-3-(4-methyl-3-(((R)-4-methyl-1,1-dioxido-3,4-dihydro-2H-benzo[b][1,4,5]oxathiazepin-2-yl)methyl)phenyl)propanoic acid] fall in the same range of pEC50: 7.00 to 8.00 for the first, 7.00 to 8.00 for the second.

First: CCn1cc(CO[C@@H](c2ccc(C)c(CN3C[C@@H](C)Cc4ccccc4S3(=O)=O)c2)C(C)(C)C(=O)O)nn1 [Example 75, (3S)-((1-ethyl-1H-1,2,3-triazol-4-yl)methoxy)-2,2-dimethyl-3-(4-methyl-3-(((S)-4-methyl-1,1-dioxido-4,5-dihydrobenzo[f][1,2]thiazepin-2(3H)-yl)methyl)phenyl)propanoic acid]
Second: CCCn1cc(CO[C@H](c2ccc(C)c(CN3C[C@@H](C)Cc4ccc(F)cc4S3(=O)=O)c2)C(C)(C)C(=O)O)nn1 [Example 87, (R)-3-(3-(((S)-8-fluoro-4-methyl-1,1-dioxido-4,5-dihydrobenzo[f][1,2]thiazepin-2(3H)-yl)methyl)-4-methylphenyl)-2,2-dimethyl-3-((1-propyl-1H-1,2,3-triazol-4-yl)methoxy)propanoic acid]
The pEC50 of the first is lower: 8.00 to 9.00 for the first, greater than 9.00 for the second. The second is the more potent here.

`CC[C@@H]1CN(Cc2cc([C@@H](OCc3cn(C)nn3)C(C)(C)C(=O)O)ccc2C)S(=O)(=O)c2ccccc2O1` [Example 120, (R)-3-(3-(((R)-4-Ethyl-1,1-dioxido-3,4-dihydro-2H-benzo[b][1,4,5]oxathiazepin-2-yl)methyl)-4-methylphenyl)-2,2-dimethyl-3-((1-methyl-1H-1,2,3-triazol-4-yl)methoxy)propanoic acid] and `CC[C@@H]1CN(Cc2cc(C(OCc3cn(CCOC)nn3)C(C)(C)C(=O)O)ccc2C)S(=O)(=O)c2ccccc2O1` (stereo partly drawn) [Example 106, 3-(3-(((R)-4-ethyl-1,1-dioxido-3,4-dihydro-2H-benzo[b][1,4,5]oxathiazepin-2-yl)methyl)-4-methylphenyl)-3-((1-(2-methoxyethyl)-1H-1,2,3-triazol-4-yl)methoxy)-2,2-dimethylpropanoic acid] cannot be ordered by pEC50: greater than 9.00 for the first, greater than 9.00 for the second.

First: CCn1cc(COC(c2ccc(C)c(CN(CC3CCCCCC3)C(C)=O)c2)C(C)(C)C(=O)O)nn1 (stereo not shown) [Example 54, 3-(3-((N-(cycloheptylmethyl)acetamido)methyl)-4-methylphenyl)-3-((1-ethyl-1H-1,2,3-triazol-4-yl)methoxy)-2,2-dimethylpropanoic acid]
Second: CC[C@H]1Cc2cccnc2CN(Cc2cc([C@H](OCc3cn(CC)nn3)C(C)(C)C(=O)O)ccc2C)C1 [Example 116, (S)-methyl 3-((1-ethyl-1H-1,2,3-triazol-4-yl)-methoxy)-3-(3-(((S)-6-ethyl-6,7-dihydro-5H-pyrido[2,3-c]azepin-8(9H)-yl)methyl)-4-methylphenyl)-2,2-dimethyl-propanoic acid, trifluoroacetate]
The pEC50 of the first is lower: 6.00 to 7.00 for the first, 7.00 to 8.00 for the second. The second is the more potent here.

`CC[C@@H]1CN(Cc2cc([C@@H](OCc3cn(CC)nn3)C(C)(C)C(=O)O)ccc2C)S(=O)(=O)c2ncccc2O1` [Example 82, (R)-3-(3-(((R)-4-ethyl-1,1-dioxido-3,4-dihydro-2H-pyrido[3,2-b][1,4,5]oxathiazepin-2-yl)methyl)-4-methylphenyl)-3-((1-ethyl-1H-1,2,3-triazol-4-yl)methoxy)-2,2-dimethylpropanoic acid] and `CCn1cc(COC(c2ccc(C)c(CN3CC(C)(C)Oc4ccccc4S3(=O)=O)c2)C(C)(C)C(=O)O)nn1` (stereo not shown) [Example 12, 3-(3-((4,4-dimethyl-1,1-dioxido-3,4-dihydro-2H-benzo[b][1,4,5]oxathiazepin-2-yl)methyl)-4-methylphenyl)-3-((1-ethyl-1H-1,2,3-triazol-4-yl)methoxy)-2,2-dimethylpropanoic acid] fall in the same range of pEC50: 8.00 to 9.00 for the first, 8.00 to 9.00 for the second.

`CC[C@@H]1CN(Cc2cc(C(OCc3cn(Cc4cccc(Cn5cc(COC(c6ccc(C)c(CN7C[C@@H](CC)Oc8ccccc8S7(=O)=O)c6)C(C)(C)C(=O)O)nn5)c4)nn3)C(C)(C)C(=O)O)ccc2C)S(=O)(=O)c2ccccc2O1` (stereo partly drawn) [Example 47, (R)-3,3′-(((1,1′-(1,3-phenylenebis(methylene))bis(1H-1,2,3-triazole-4,1-diyl))bis(methylene))bis(oxy))bis(3-(3-(((R)-4-ethyl-1,1-dioxido-3,4-dihydro-2H-benzo[b][1,4,5]oxathiazepin-2-yl)methyl)-4-methylphenyl)-2,2-dimethylpropanoic acid)] and `Cc1ccc(C(OCc2cn(Cc3ccc(Cn4cc(COC(c5ccc(C)c(CN6C[C@@H](C)Oc7ccccc7S6(=O)=O)c5)C(C)(C)C(=O)O)nn4)cc3)nn2)C(C)(C)C(=O)O)cc1CN1C[C@@H](C)Oc2ccccc2S1(=O)=O` (stereo partly drawn) [Example 48, (R)-3,3′-(((1,1′-(1,4-phenylenebis(methylene))bis(1H-1,2,3-triazole-4,1-diyl))bis(methylene))bis(oxy))bis(2,2-dimethyl-3-(4-methyl-3-(((R)-4-methyl-1,1-dioxido-3,4-dihydro-2H-benzo[b][1,4,5]oxathiazepin-2-yl)methyl)phenyl)propanoic acid)] fall in the same range of pEC50: 7.00 to 8.00 for the first, 7.00 to 8.00 for the second.

Compared with `CCCn1cc(CO[C@H](c2ccc(C)c(CN3C[C@@H](C)Cc4ccncc4S3(=O)=O)c2)C(C)(C)C(=O)O)nn1` [Example 83, (R)-2,2-dimethyl-3-(4-methyl-3-(((S)-4-methyl-1,1-dioxido-4,5-dihydropyrido[4,3-f][1,2]thiazepin-2(3H)-yl)methyl)phenyl)-3-((1-propyl-1H-1,2,3-triazol-4-yl)methoxy)propanoic acid], `Cc1ccc(C(OCc2c[nH]nn2)C(C)(C)C(=O)O)cc1CN1C[C@@H](C)Oc2ccccc2S1(=O)=O` (stereo partly drawn) [Example 101, 3-((1H-1,2,3-triazol-4-yl)methoxy)-2,2-dimethyl-3-(4-methyl-3-(((R)-4-methyl-1,1-dioxido-3,4-dihydro-2H-benzo[b][1,4,5]oxathiazepin-2-yl)methyl)phenyl)propanoic acid] is lower in pEC50: greater than 9.00 for the first, 7.00 to 8.00 for the second.

In the case of `Cc1ccc(C(OCc2cn(Cc3cccc(-c4cccc(C(=O)O)c4)c3)nn2)C(C)(C)C(=O)O)cc1CN1C[C@@H](C)Oc2ccccc2S1(=O)=O` (stereo partly drawn) [Example 26, 3′-((4-((2-Carboxy-2-methyl-1-(4-methyl-3-(((R)-4-methyl-1,1-dioxido-3,4-dihydro-2H-benzo[b][1,4,5]oxathiazepin-2-yl)methyl)phenyl)propoxy)methyl)-1H-1,2,3-triazol-1-yl)methyl)-[1,1′-biphenyl]-3-carboxylic acid], the pEC50 was 7.00 to 8.00.
